Among the data in patent US20230165865A1, “HETEROARYLDIHYDROPYRIMIDINE DERIVATIVES AND METHODS OF TREATING HEPATITIS B INFECTIONS” (Janssen Pharmaceutica NV, priority 2018, published 2023) are CC50 and EC50 values, retold here.

Where two headings read alike, the source gives them in different places.

Data set [1] in a line: Cytotoxicity determination in HepG2.2.15 cells (CCK-8 assay). Type of data set: cell-based. Particulars: human, 6 days treatment, CCK-8, highest concentration 100 uM. How it is done:
(§1) HepG2.2.15 (the HepG2.2.15 cell line can be produced by transfection of the HepG2 cell line as described in Sells, Chen, and Acs 1987 (Proc. Natl. Acad. Sci. USA 84: 1005-1009), and the HepG2 cell line is available from ATCC® under number HB-8065™)
(§2) HepG2.2.15 cells were plated into 96-well plate in 2% FBS culture medium at the density of 40,000 cells/well and 5,000cells/well for HBV inhibitory activity and cytotoxicity determination, respectively. After incubation at 37° C., 5% CO2 overnight, cells were treated with medium containing compounds for 6 days with medium and compounds refreshed after 3 days of treatment. Each compound was tested in a 1:3 serial dilutions at 8 different concentrations in triplicate. The highest concentration of the compounds was 10 uM or 1 uM for anti-HBV activity assay and 100 uM for cytotoxicity determination.
Cell viability was determined by CCK-8 assay. After 6 days of compounds treatment, 20 μl CCK-8 reagents were added to each well of cytotoxicity assay plates. Cell plates were incubated at 37° C., 5% CO2 for 2.5 h. The absorbance at 450 nm wavelength and the absorbance at 630 nm wavelength as reference was measured.
(§3) EC50 and CC50 values are calculated by the […] PRISM software.
Background: Tetrazolium assays rely on reduction of a dye to a coloured formazan, in cell work by metabolically active cells.

For another data set, the system named is HBV. The experiment in a line: Anti-viral assay in HepG2.2.15 cells: anti-HBV activity, HBV DNA in culture medium by qPCR. The data set is classed as cell-based. The following applies: HepG2.2.15 cells, 6 days treatment, HBV DNA by qPCR, read-out: EC50. As to the method: as §1, §2
The change of HBV DNA level induced by the compounds was assessed by quantitative real-time polymerase chain reaction (qPCR). Briefly, the HBV DNA in the culture medium was extracted using QIAamp 96 DNA Blood Kit according to the manual and then quantified by real-time PCR assay using the primers and probe in the table 1 below.
as §3
On the technique in general: Real-time PCR tracks product formation cycle by cycle.

Where [2] appears, read: Hepatitis B virus, HepG2.2.15, 144 h.

Usually CC50 stands for the concentration that lowers cell viability or growth by half. Broadly, the EC50 is the concentration at which the effect is half-maximal. `CCOC(=O)C1=C(CN2CCN3C(=S)N([C@@H]4CC[C@H](C(=O)O)C4)CC3C2)NC(c2nccs2)=N[C@H]1c1cccc(F)c1C` (single isomer, unassigned) [Compound 24A] displayed a CC50 at 6 days in data set [1] of 15.5 µM. In addition, the concentration giving a half-maximal response (EC50) in the data set on HBV came out at 0.0391 µM.

Molecule `CCOC(=O)C1=C(CN2CCN3C(=S)N(CC4(C(=O)O)CC4)CC3C2)NC(c2nccs2)=NC1c1cccc(F)c1Cl` (stereo not drawn) [Compound 5, 1-((7-((6-(2-Chloro-3-fluorophenyl)-5-(ethoxycarbonyl)-2-(thiazol-2-yl)-3,6-dihydropyrimidin-4-yl)methyl)-3-thioxohexahydroimidazo[1,5-a]pyrazin-2(3H)-yl)methyl)cyclopropanecarboxylic acid] showed a half-maximal cytotoxic concentration (CC50) at 6 days in data set [1] of 11.8 µM. In addition, the half-maximal effective concentration (EC50) with HBV (setting [2]) amounted to 0.0017 µM.

Take `COC(=O)C1=C(CN2CCN3C(=S)N(CC(C)(C)C(=O)O)C[C@@H]3C2)NC(c2nccs2)=N[C@H]1c1cccc(F)c1Cl` (single isomer, unassigned) [Compound 20A, 3-(7-((6-(2-chloro-3-fluorophenyl)-5-(methoxycarbonyl)-2-(thiazol-2-yl)-3,6-dihydropyrimidin-4-yl)methyl)-3-thioxohexahydroimidazo[1,5-a]pyrazin-2(3H)-yl)-2,2-dimethylpropanoic acid]: the midpoint of cytotoxicity in data set [1], the CC50 at 6 days, lay at 16.4 µM. Also, the EC50 in the data set on HBV (setting [2]) worked out at 0.0035 µM.

In turn, `COC(=O)C1=C(CN2CCN3C(=S)N(CC(C)(C)C(=O)O)CC3C2)NC(c2nccs2)=NC1c1cccc(F)c1C` (single isomer, unassigned) [Compound 10B, 3-(-7-((6-(3-Fluoro-2-methylphenyl)-5-(methoxycarbonyl)-2-(thiazol-2-yl)-3,6-dihydropyrimidin-4-yl)methyl)-3-thioxohexahydroimidazo[1,5-a]pyrazin-2(3H)-yl)-2,2-dimethylpropanoic acid] displayed a CC50 at 6 days in data set [1] of 23.2 µM. In addition, the EC50 with HBV (setting [2]) stood at 0.0029 µM.

For `CCOC(=O)C1=C(CN2CCN3C(=S)N(C)C[C@@H]3[C@H]2C(=O)O)NC(c2nccs2)=N[C@H]1c1cccc(F)c1C` (single isomer, unassigned) [Compound 35A], half-maximal cytotoxicity in data set [1] (CC50 at 6 days) was put at 77 µM. In the data set with HBV, the EC50 came out at 0.0479 µM.

For `CCOC(=O)C1=C(CN2CCN3C(=S)N(CC(C)(C)C(=O)O)C[C@@H]3C2)NC(c2nccs2)=N[C@H]1c1ccc(C)cc1F` (single isomer, unassigned) [Compound 25A, 3-(7-((5-(Ethoxycarbonyl)-6-(2-fluoro-4-methylphenyl)-2-(thiazol-2-yl)-3,6-dihydropyrimidin-4-yl)methyl)-3-thioxohexahydroimidazo[1,5-a]pyrazin-2(3H)-yl)-2,2-dimethylpropanoic acid], the CC50 at 6 days in data set [1] was 31 µM. Moreover, the EC50 in the data set with HBV (setting [2]) came out at 0.0916 µM.

In turn, `CCOC(=O)C1=C(CN2CCN3C(=S)N(CC(C)(C)C(=O)O)CC3C2)NC(c2nccs2)=NC1c1ccc(F)c(F)c1Cl` (single isomer, unassigned) [Compound 14A, 3-(7-((6-(2-Chloro-3,4-difluorophenyl)-5-(ethoxycarbonyl)-2-(thiazol-2-yl)-3,6-dihydropyrimidin-4-yl)methyl)-3-thioxohexahydroimidazo[1,5-a]pyrazin-2(3H)-yl)-2,2-dimethylpropanoic acid] showed a 50% cytotoxic concentration (CC50) at 6 days in data set [1] of 9.6 µM. The EC50 in the data set with HBV (setting [2]) turned out to be 0.0012 µM.

For the molecule `CCOC(=O)C1=C(CN2CCN3C(=S)N(CCC(C)(C)C(=O)O)CC3C2)NC(c2nccs2)=N[C@H]1c1cccc(F)c1C` (stereo partly drawn) [Compound 28, 4-(7-(((S)-5-(ethoxycarbonyl)-6-(3-fluoro-2-methylphenyl)-2-(thiazol-2-yl)-3,6-dihydropyrimidin-4-yl)methyl)-3-thioxohexahydroimidazo[1,5-a]pyrazin-2(3H)-yl)-2,2-dimethylbutanoic acid], the CC50 at 6 days in data set [1] stood at 10.9 µM. Also, the EC50 in the data set on HBV (setting [2]) stood at 0.0058 µM.

In the case of `COC(=O)C1=C(CN2CCN3C(=S)N(CC(C)(C)C(=O)O)C[C@@H]3C2)NC(c2ncoc2C)=N[C@H]1c1ccc(F)cc1Cl` (single isomer, unassigned) [Compound 34A, 3-(7-((6-(2-Chloro-4-fluorophenyl)-5-(methoxycarbonyl)-2-(5-methyloxazol-4-yl)-3,6-dihydropyrimidin-4-yl)methyl)-3-thioxohexahydroimidazo[1,5-a]pyrazin-2(3H)-yl)-2,2-dimethylpropanoic acid], the midpoint of cytotoxicity in data set [1], the CC50 at 6 days, lay at 47.4 µM. In addition, the 50% effective concentration (EC50) in the data set on HBV (setting [2]) came to 0.0079 µM.

For `COC(=O)C1=C(CN2CCN3C(=S)N(CC(C)(C)C(=O)O)C[C@@H]3C2)NC(c2nccs2)=N[C@@H]1c1ccc(F)cc1Br` (single isomer, unassigned) [Compound 16A, 3-(7-((6-(2-Bromo-4-fluorophenyl)-5-(methoxycarbonyl)-2-(thiazol-2-yl)-3,6-dihydropyrimidin-4-yl)methyl)-3-thioxohexahydroimidazo[1,5-a]pyrazin-2(3H)-yl)-2,2-dimethylpropanoic acid], in data set [1], the cytotoxic concentration (CC50) at 6 days is 15.3 µM. In addition, the concentration giving a half-maximal response (EC50) in the data set with HBV (setting [2]) came to 0.0045 µM.

In turn, `CCOC(=O)C1=C(CN2CCN3C(=S)N(CC(C)(C)C(=O)O)C[C@@H]3C2)NC(c2nccs2)=N[C@H]1c1ccc(F)c(F)c1C` (single isomer, unassigned) [Compound 15B, 3-(7-((6-(3,4-Difluoro-2-methylphenyl)-5-(ethoxycarbonyl)-2-(thiazol-2-yl)-3,6-dihydropyrimidin-4-yl)methyl)-3-thioxohexahydroimidazo[1,5-a]pyrazin-2(3H)-yl)-2,2-dimethylpropanoic acid] came in with a cytotoxic concentration (CC50) at 6 days in data set [1] of 45 µM. The EC50 with HBV (setting [2]) stood at 0.3 µM.

In data set [1], `CCOC(=O)C1=C(CN2CCN3C(=S)N(CC4(C(=O)O)CCC4)CC3C2)NC(c2nccs2)=N[C@H]1c1cccc(F)c1C` (single isomer, unassigned) [Compound 29B] registered a CC50 at 6 days of 11.2 µM. Moreover, the concentration giving a half-maximal response (EC50) in the data set with HBV (setting [2]) came to 0.0015 µM.

`CCOC(=O)C1=C(CN2CCN3C(=S)N(CC4(C(=O)O)CC4)C[C@@H]3C2)NC(c2nccs2)=N[C@H]1c1cccc(F)c1Cl` (single isomer, unassigned) [Compound 18B, 1-((7-((6-(2-chloro-3-fluorophenyl)-5-(ethoxycarbonyl)-2-(thiazol-2-yl)-3,6-dihydropyrimidin-4-yl)methyl)-3-thioxohexahydroimidazo[1,5-a]pyrazin-2(3H)-yl)methyl)cyclopropane-1-carboxylic acid] gave a CC50 at 6 days in data set [1] of 13 µM. Further, in the data set with HBV (setting [2]), the concentration for a half-maximal effect (EC50) was found to be 0.0015 µM.

Take `CCOC(=O)C1=C(CN2CCN3C(=S)N(C[C@@H](C)C(=O)O)C[C@@H]3C2)NC(c2ncoc2C)=NC1c1cccc(F)c1C` (single isomer, unassigned) [Compound 32A, 3-(7-((5-(Ethoxycarbonyl)-6-(3-fluoro-2-methylphenyl)-2-(5-methyloxazol-4-yl)-3,6-dihydropyrimidin-4-yl)methyl)-3-thioxohexahydroimidazo[1,5-a]pyrazin-2(3H)-yl)-2-methylpropanoic acid]: in data set [1], the midpoint of cytotoxicity, the CC50 at 6 days, lay at 41 µM. Further, the EC50 with HBV (setting [2]) is 0.0249 µM.

In the case of `CCOC(=O)C1=C(CN2CCN3C(=S)N(C)C[C@@H]3[C@H]2C(=O)O)NC(c2nccs2)=N[C@H]1c1cccc(F)c1Cl` (relative stereo) [Compound 19A, (trans)-7-((6-(2-chloro-3-fluorophenyl)-5-(ethoxycarbonyl)-2-(thiazol-2-yl)-3,6-dihydropyrimidin-4-yl)methyl)-2-methyl-3-thioxooctahydro-imidazo[1,5-a]pyrazine-8-carboxylic acid], in data set [1], the CC50 at 6 days came to 89.9 µM. For the same molecule, in the data set on HBV (setting [2]), the 50% effective concentration (EC50) is 0.0405 µM.

In turn, `CCOC(=O)C1=C(CN2CCN3C(=S)N(C)C[C@@H]3[C@H]2C(=O)O)NC(c2nccs2)=N[C@H]1c1cccc(F)c1Cl` (single isomer, unassigned) [Compound 19B, (trans)-7-((6-(2-chloro-3-fluorophenyl)-5-(ethoxycarbonyl)-2-(thiazol-2-yl)-3,6-dihydropyrimidin-4-yl)methyl)-2-methyl-3-thioxooctahydro-imidazo[1,5-a]pyrazine-8-carboxylic acid] registered a cytotoxic concentration (CC50) at 6 days in data set [1] of 51.2 µM. In addition, the EC50 with HBV (setting [2]) is 0.0018 µM.

In data set [1], `CCOC(=O)C1=C(CN2CCN3C(=S)N([C@H]4CC[C@@H](C(=O)O)C4)CC3C2)NC(c2nccs2)=N[C@H]1c1cccc(F)c1C` (single isomer, unassigned) [Compound 24C] had a CC50 at 6 days of 11.6 µM. Further, in the data set with HBV, the EC50 amounted to 0.0014 µM.

Take `CCOC(=O)C1=C(CN2CCN3C(=S)N(CC(C)(C)C(=O)O)CC3C2)NC(c2nccs2)=NC1c1ccc(F)c(F)c1Cl` (stereo not drawn) [Compound 14, 3-(7-((6-(2-Chloro-3,4-difluorophenyl)-5-(ethoxycarbonyl)-2-(thiazol-2-yl)-3,6-dihydropyrimidin-4-yl)methyl)-3-thioxohexahydroimidazo[1,5-a]pyrazin-2(3H)-yl)-2,2-dimethylpropanoic acid]: the CC50 at 6 days in data set [1] was 10.6 µM. Besides, the concentration giving a half-maximal response (EC50) in the data set with HBV (setting [2]) came to 0.0059 µM.
